# Experimental data as given in paper PMC11859928, “Design, Synthesis, and Antiproliferative Activity of Novel Indole/1,2,4-Triazole Hybrids as Tubulin Polymerization Inhibitors” (Pharmaceuticals, 2025).
# Like-named read-outs stand apart in the source and are kept apart here.
# Tests used:
# HS 578T = assay: NCI five-dose assay; type: cell-based, human; conditions: for LC50 / GI50: Homo sapiens; for GI50: read-out: GI50 Conc. per Cell Lines
# M14 = assay: NCI five-dose assay; type: cell-based, human; conditions: for CC50 / GI50: Homo sapiens; for CC50: read-out: LC50 (the source's name); for GI50: read-out: GI50 Conc. per Cell Lines
# Breast cancer subpanel = assay: NCI five-dose assay, subpanel mean; type: cell-based, human; conditions: for GI50 Selectivity Ratio (MID a/MID b): Breast cancer subpanel; for GI50: Homo sapiens, read-out: GI50 Subpanel MID b
# T-47D = assay: NCI five-dose assay; type: cell-based, human; conditions: for LC50 (concentration killing 50% of cells) / GI50: Homo sapiens, T47D; for GI50: read-out: GI50 Conc. per Cell Lines
# MDA-MB 231 cell = assay: Apoptosis induction assay (Annexin V/PI); type: cell-based; conditions: MDA-MB 231, 24 h
# Method: The MDA-MB 231 cell was labeled with Annexin V/PI, cultured for 24 h, and examined to assess the capacity of 7i to induce apoptosis.
# (§1) The MDA-MB231 breast cancer cell line was used for cell cycle study and apoptosis detection. The assay was performed as previously documented (Appendix A).
# COLO205 = assay: NCI five-dose assay; type: cell-based, human; conditions: for CC50 / GI50: Homo sapiens, COLO 205; for CC50: read-out: LC50 (the source's name); for GI50: read-out: GI50 Conc. per Cell Lines
# NCI/ADR-RES = assay: NCI five-dose assay; type: cell-based, human; conditions: for LC50 / GI50: Homo sapiens; for GI50: read-out: GI50 Conc. per Cell Lines
# [1] = test system: MDA-MB 231 breast cancer cells; assay: Cell cycle analysis; type: cell-based; conditions: MDA-MB 231, 24 h, IC50 concentration of 7i
# Method: The impact of compound 7i on cell cycle progression was investigated in MDA-MB 231 breast cancer cells. […] The cell line was handled with PI/Annexin V, and flow cytometry was utilizing a BD FACS Caliber. […] This indicates a cell cycle arrest at the G1 phase transition.
# as §1
# Prostate cancer subpanel = assay: NCI five-dose assay, subpanel mean; type: cell-based, human; conditions: for GI50: Homo sapiens, read-out: GI50 Subpanel MID b; for GI50 Selectivity Ratio (MID a/MID b): Prostate cancer subpanel
# OVCAR-5 = assay: NCI five-dose assay; type: cell-based, human; conditions: for LC50 / GI50: Homo sapiens; for GI50: read-out: GI50 Conc. per Cell Lines
# NCI-H226 = assay: NCI five-dose assay; type: cell-based, human; conditions: for CC50 / GI50: Homo sapiens; for CC50: read-out: LC50 (the source's name); for GI50: read-out: GI50 Conc. per Cell Lines
# 786-0 = assay: NCI five-dose assay; type: cell-based, human; conditions: for LC50 (50% lethal concentration) / GI50: Homo sapiens; for GI50: read-out: GI50 Conc. per Cell Lines
# SK-OV-3 = assay: NCI five-dose assay; type: cell-based, human; conditions: for CC50 / GI50: Homo sapiens; for CC50: read-out: LC50 (the source's name); for GI50: read-out: GI50 Conc. per Cell Lines
# SK-MEL-2 = assay: NCI five-dose assay; type: cell-based, human; conditions: for CC50 / GI50: Homo sapiens; for CC50: read-out: LC50 (the source's name); for GI50: read-out: GI50 Conc. per Cell Lines
# NCI-H460 = assay: NCI five-dose assay; type: cell-based, human; conditions: for CC50 / GI50: Homo sapiens; for CC50: read-out: LC50 (the source's name); for GI50: read-out: GI50 Conc. per Cell Lines
# [2] = NCI-H226, Non-small cell lung cancer
# [3] = NCI-H460, Non-small cell lung cancer
smiles,measurement,setting,value
"O/N=C(\CSc1nnc(-c2c[nH]c3ccccc23)n1-c1ccccc1)c1ccc(Br)cc1 [Compound 7i, (Z)-2-((5-(1H-Indol-3-yl)-4-phenyl-4H-1,2,4-triazol-3-yl)thio)-1-(4-bromophenyl) Ethanone Oxime]",TGI Conc. per Cell Lines,HS 578T; Breast cancer,11.90 µM
same,LC50,"HS 578T; Breast cancer, 48 h",> 100 µM
same,GI50,HS 578T; Breast cancer,2.84 µM
same,CC50,"M14; M14, Melanoma, 48 h",> 100 µM
same,GI50,"M14; M14, Melanoma",3.4 µM
same,TGI Conc. per Cell Lines,"M14; M14, Melanoma",17.60 µM
same,GI50 Selectivity Ratio (MID a/MID b),Breast cancer subpanel,1.02
same,GI50,Breast cancer subpanel; average sensitivity of all cell lines of the Breast cancer subpanel,2.73 µM
same,TGI Conc. per Cell Lines,T-47D; Breast cancer,17.20 µM
same,LC50 (concentration killing 50% of cells),"T-47D; Breast cancer, 48 h",> 100 µM
same,GI50,T-47D; Breast cancer,3.51 µM
same,necrosis percentage (PI/Annexin upper left quadrant),MDA-MB 231 cell,3.88%
same,TGI Conc. per Cell Lines,"COLO205; COLO205, Colon cancer",16.60 µM
same,CC50,"COLO205; COLO205, Colon cancer, 48 h",> 100 µM
same,GI50,"COLO205; COLO205, Colon cancer",3.8 µM
same,LC50,"NCI/ADR-RES; Ovarian cancer, 48 h",8.08 µM
same,GI50,NCI/ADR-RES; Ovarian cancer,1.9 µM
same,TGI Conc. per Cell Lines,NCI/ADR-RES; Ovarian cancer,3.92 µM
same,cells in G0/G1 phase (%DIP G1),[1],83%
same,GI50,Prostate cancer subpanel; average sensitivity of all cell lines of the Prostate cancer subpanel,2.1 µM
same,GI50 Selectivity Ratio (MID a/MID b),Prostate cancer subpanel,1.33
same,LC50,"OVCAR-5; OVCAR-5, Ovarian cancer, 48 h",1.59 µM
same,GI50,"OVCAR-5; OVCAR-5, Ovarian cancer",2.18 µM
same,TGI Conc. per Cell Lines,"OVCAR-5; OVCAR-5, Ovarian cancer",5.21 µM
same,CC50,"NCI-H226; NCI-H226, Non-small cell lung cancer, 48 h",51.4 µM
same,GI50,NCI-H226; [2],3.33 µM
same,TGI Conc. per Cell Lines,NCI-H226; [2],14.90 µM
same,TGI Conc. per Cell Lines,"786-0; 786-0, Renal cancer",27.00 µM
same,LC50 (50% lethal concentration),"786-0; 786-0, Renal cancer, 48 h",93.4 µM
same,GI50,"786-0; 786-0, Renal cancer",6.85 µM
same,CC50,"SK-OV-3; SK-OV-3, Ovarian cancer, 48 h",27.4 µM
same,GI50,"SK-OV-3; SK-OV-3, Ovarian cancer",2.53 µM
same,TGI Conc. per Cell Lines,"SK-OV-3; SK-OV-3, Ovarian cancer",6.03 µM
same,CC50,"SK-MEL-2; SK-MEL-2, Melanoma, 48 h",37.5 µM
same,GI50,"SK-MEL-2; SK-MEL-2, Melanoma",3.1 µM
same,TGI Conc. per Cell Lines,"SK-MEL-2; SK-MEL-2, Melanoma",10.4 µM
same,CC50,"NCI-H460; NCI-H460, Non-small cell lung cancer, 48 h",68.4 µM
same,GI50,NCI-H460; [3],3.53 µM
same,TGI Conc. per Cell Lines,NCI-H460; [3],12.90 µM
"O/N=C(\CSc1nnc(-c2c[nH]c3ccccc23)n1-c1ccccc1)c1ccc(Cl)cc1 [Compound 7j, (Z)-2-((5-(1H-Indol-3-yl)-4-phenyl-4H-1,2,4-triazol-3-yl)thio)-1-(4-chlorophenyl) Ethanone Oxime]",LC50,HS 578T; five dose levels,> 100 µM
same,GI50,HS 578T; five dose levels,3.09 µM
same,TGI Conc. per Cell Lines,HS 578T; five dose levels,16.6 µM
same,GI50,"M14; M14, five dose levels",3.15 µM
same,CC50,"M14; M14, five dose levels",> 100 µM
same,TGI Conc. per Cell Lines,"M14; M14, five dose levels",14.1 µM
same,GI50 Selectivity Ratio (MID a/MID b),Breast cancer subpanel,1.24
same,GI50,"Breast cancer subpanel; Breast cancer, average sensitivity of all cell lines of the subpanel",2.93 µM
same,LC50 (concentration killing 50% of cells),T-47D; five dose levels,> 100 µM
same,GI50,T-47D; five dose levels,3.6 µM
same,TGI Conc. per Cell Lines,T-47D; five dose levels,31.4 µM
same,TGI Conc. per Cell Lines,"COLO205; COLO205, five dose levels",25.9 µM
same,GI50,"COLO205; COLO205, five dose levels",4.47 µM
same,CC50,"COLO205; COLO205, five dose levels",> 100 µM
same,LC50,NCI/ADR-RES; five dose levels,> 100 µM
same,GI50,NCI/ADR-RES; five dose levels,2.95 µM
same,TGI Conc. per Cell Lines,NCI/ADR-RES; five dose levels,9.50 µM
same,GI50,"Prostate cancer subpanel; Prostate cancer, average sensitivity of all cell lines of the subpanel",2.45 µM
same,GI50 Selectivity Ratio (MID a/MID b),Prostate cancer subpanel,1.48
same,LC50,"OVCAR-5; OVCAR-5, five dose levels",> 100 µM
same,GI50,"OVCAR-5; OVCAR-5, five dose levels",3.37 µM
same,TGI Conc. per Cell Lines,"OVCAR-5; OVCAR-5, five dose levels",11.4 µM
same,GI50,"NCI-H226; NCI-H226, five dose levels",3.99 µM
same,CC50,"NCI-H226; NCI-H226, five dose levels",61.8 µM
same,TGI Conc. per Cell Lines,"786-0; 786-0, five dose levels",>100 µM
same,LC50 (50% lethal concentration),"786-0; 786-0, five dose levels",93.5 µM
same,GI50,"786-0; 786-0, five dose levels",7.29 µM
same,GI50,"SK-OV-3; SK-OV-3, five dose levels",3.38 µM
same,CC50,"SK-OV-3; SK-OV-3, five dose levels",71.4 µM
same,GI50,"SK-MEL-2; SK-MEL-2, five dose levels",3.64 µM
same,CC50,"SK-MEL-2; SK-MEL-2, five dose levels",> 100 µM
same,GI50,"NCI-H460; NCI-H460, five dose levels",3.33 µM
same,CC50,"NCI-H460; NCI-H460, five dose levels",> 100 µM
same,TGI Conc. per Cell Lines,"NCI-H460; NCI-H460, five dose levels",15.7 µM
